Experimental data taken from US11021481B2, “Substituted isoindolin-1-ones and 2,3-dihydro-1h-pyrrolo[3,4-c]pyridin-1-ones as HPK1 antagonists” (Nimbus Saturn, Inc., priority 2019, dated 2021).

The compounds below were run against HPK1 (Homo sapiens (Human), UniProt Q92918) (assay: HPK1 biochemical enzyme assay (microfluidic mobility shift assay)). Details: 1.5 nM HPK1, ATP 1 mM final, 30 min preincubation, 60 min at RT, Caliper EZ Reader; read-out: HPK1 1000UMATP caliper IC50.
Procedure, shortened: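 Mobility shift readout of HPK1 activity after a 60 min RT reaction with 1 mM ATP, 1 μM substrate and 5 mM MgCl2. Enzyme/substrate mix was first exposed to compounds for 30 min, using ten-point curves topping at 3 μM final.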

Chain of HPK1 (Q92918 whole entry): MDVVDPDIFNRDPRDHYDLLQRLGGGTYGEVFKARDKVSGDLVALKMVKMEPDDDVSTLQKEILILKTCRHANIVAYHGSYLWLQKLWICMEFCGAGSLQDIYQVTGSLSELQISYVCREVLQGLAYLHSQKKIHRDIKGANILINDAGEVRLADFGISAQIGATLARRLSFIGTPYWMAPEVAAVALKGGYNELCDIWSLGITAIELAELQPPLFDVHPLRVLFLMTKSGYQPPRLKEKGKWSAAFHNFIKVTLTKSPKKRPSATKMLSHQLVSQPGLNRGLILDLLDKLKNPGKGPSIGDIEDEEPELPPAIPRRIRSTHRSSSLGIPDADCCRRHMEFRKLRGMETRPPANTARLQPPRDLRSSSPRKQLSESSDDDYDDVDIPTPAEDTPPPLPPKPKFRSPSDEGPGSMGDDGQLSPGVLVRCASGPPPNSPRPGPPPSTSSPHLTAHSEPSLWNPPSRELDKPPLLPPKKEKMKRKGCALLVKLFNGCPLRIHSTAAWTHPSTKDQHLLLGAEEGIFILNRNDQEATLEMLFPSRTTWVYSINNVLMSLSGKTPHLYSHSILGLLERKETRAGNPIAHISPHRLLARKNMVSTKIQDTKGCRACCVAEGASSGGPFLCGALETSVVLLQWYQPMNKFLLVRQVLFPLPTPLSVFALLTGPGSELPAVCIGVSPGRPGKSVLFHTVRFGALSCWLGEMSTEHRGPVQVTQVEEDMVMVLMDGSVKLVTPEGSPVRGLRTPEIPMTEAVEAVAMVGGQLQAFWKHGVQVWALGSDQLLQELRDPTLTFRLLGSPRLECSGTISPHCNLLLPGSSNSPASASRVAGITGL

IC50, < 100 nM:
CN(Cc1nc(Nc2ccc(-c3cnc4cc(F)ccn34)c3c2C(=O)NC3)ccc1[C@@H]1CCOC1)C1COC1 [I-744, (S)-4-(7-fluoroimidazo [1,2-a]pyridin-3-yl)-7-((6-((methyl(oxe-tan-3-yl)amino)meth-yl)-5-(tetrahydrofuran-3-yl)pyridin-2-yl)amino)isoin-dolin-1-one]
CN(C)Cc1nc(Nc2ccc(-c3cnc4cc(F)ccn34)c3c2C(=O)NC3)ccc1N1CCC[C@@H](C(C)(C)O)C1 [I-745, (R)-7-((6-((dimethylamino)-methyl)-5-(3-(2-hydroxypropan-2-yl)piperidin-1-yl)pyridin-2-yl)amino)-4-(7-fluoroimidazo [1,2-a]pyridin-3-yl)isoindolin-1-one]
CN(C)Cc1nc(Nc2ccc(-c3cnc4cc(F)ccn34)c3c2C(=O)NC3)ccc1N1CCC[C@H](C(C)(C)O)C1 [I-746, (S)-7-((6-((dimethylamino)-methyl)-5-(3-(2-hydroxypropan-2-yl)piperidin-1-yl)pyridin-2-yl)amino)-4-(7-fluoroimidazo [1,2-a]pyridin-3-yl)isoindolin-1-one]
CC(C)(c1ccc(Nc2ccc(-c3cnc4cc(F)ccn34)c3c2C(=O)NC3)nc1)N1CCOCC1 [I-747, 4-(7-fluoroimidazo [1,2-a]pyridin-3-yl)-7-((5-(2-morpholino-propan-2-yl)pyridin-2-yl)amino)isoin-dolin-1-one]
O=C1NCc2c(-c3cnc4cc(F)ccn34)ccc(Nc3ccc([C@H]4CCOC4)c(CNCC(F)(F)F)n3)c21 [I-750, (R)-4-(7-fluoroimidazo [1,2-a]pyridin-3-yl)-7-((5-(tetrahydrofuran-3-yl)-6-(((2,2,2-trifluoroethyl)amino)methyl)pyridin-2-yl)amino)isoin-dolin-1-one]
O=C1NCc2c(-c3cnc4cc(F)ccn34)ccc(Nc3ccc([C@@H]4CCOC4)c(CNCC(F)(F)F)n3)c21 [I-751, (S)-4-(7-fluoroimidazo [1,2-a]pyridin-3-yl)-7-((5-(tetrahydrofuran-3-yl)-6-(((2,2,2-trifluoroethyl)amino)methyl)pyridin-2-yl)amino)isoin-dolin-1-one]
O=C1NCc2c(-c3cnc4cc(F)ccn34)ccc(Nc3ccc([C@H]4CCOC4)c(CN4CCC4)n3)c21 [I-755, (R)-7-((6-(azetidin-1-ylmethyl)-5-(tetrahydrofuran-3-yl)pyridin-2-yl)amino)-4-(7-fluoroimidazo [1,2-a]pyridin-3-yl)isoindolin-1-one]
O=C1NCc2c(-c3cnc4cc(F)ccn34)ccc(Nc3ccc([C@H]4CCOC4)c(CN4CCC4)n3)c21 [I-756, (R)-7-((6-(azetidin-1-ylmethyl)-5-(tetrahydrofuran-3-yl)pyridin-2-yl)amino)-4-(7-fluoroimidazo [1,2-a]pyridin-3-yl)isoindolin-1-one]
O=C1NCc2c(-c3cnc4cc(F)ccn34)ccc(Nc3ccc([C@H]4CCOC4)c(CN4CC(F)C4)n3)c21 [I-762, (R)-7-((6-((3-fluoroazetidin-1-yl)methyl)-5-(tetrahydrofuran-3-yl)pyridin-2-yl)amino)-4-(7-fluoroimidazo [1,2-a]pyridin-3-yl)isoindolin-1-one]
CN(C)Cc1nc(Nc2cnc(-c3ccnc4[nH]ccc34)c3c2C(=O)NC3)ccc1[C@@H]1CCOC1 [I-766, (S)-7-((6-((dimethylamino)-methyl)-5-(tetrahydrofuran-3-yl)pyridin-2-yl)amino)-4-(1H-pyrrolo[2,3-b]pyridin-4-yl)-2,3-dihydro-1H-pyrrolo[3,4-c]pyridin-1-one]
CN(C)Cc1nc(Nc2cnc(-c3ccnc4[nH]ccc34)c3c2C(=O)NC3)ccc1[C@H]1CCOC1 [I-767, (R)-7-((6-((dimethylamino)-methyl)-5-(tetrahydrofuran-3-yl)pyridin-2-yl)amino)-4-(1H-pyrrolo[2,3-b]pyridin-4-yl)-2,3-dihydro-1H-pyrrolo[3,4-c]pyridin-1-one]
CN(C)Cc1nc(Nc2cnc(-c3ccnc4c3ccn4C)c3c2C(=O)NC3)ccc1N1CCOCC1 [I-768, 7-((6-((dimethylamino)-methyl)-5-morpholinopy-ridin-2-yl)amino)-4-(1-methyl-1H-pyrrolo[2,3-b]pyridin-4-yl)-2,3-dihydro-1H-pyrrolo[3,4-c]pyridin-1-one]
CN(C)Cc1nc(Nc2cnc(-c3ccnc4c3ccn4C)c3c2C(=O)NC3)ccc1N1CCO[C@@H](C(C)(C)O)C1 [I-769, (R)-7-((6-((dimethylamino)-methyl)-5-(2-(2-hydroxypropan-2-yl)morpholino)pyridin-2-yl)amino)-4-(1-methyl-1H-pyrrolo[2,3-b]pyridin-4-yl)-2,3-dihydro-1H-pyrrolo[3,4-c]pyridin-1-one]
CN(C)Cc1nc(Nc2cnc(-c3ccnc4c3ccn4C)c3c2C(=O)NC3)ccc1N1CCO[C@H](C(C)(C)O)C1 [I-770, (S)-7-((6-((dimethylamino)-methyl)-5-(2-(2-hydroxypropan-2-yl)morpholino)pyridin-2-yl)amino)-4-(1-methyl-1H-pyrrolo[2,3-b]pyridin-4-yl)-2,3-dihydro-1H-pyrrolo[3,4-c]pyridin-1-one]
O=C1NCc2c(-c3cnc4cc(F)ccn34)ccc(Nc3ccc(C4CCOC4)c(CO)n3)c21 (centres unmarked) [I-771, 4-(7-fluoroimidazo [1,2-a]pyridin-3-yl)-7-((6-(hydroxymeth-yl]-5-(tetrahydrofuran-3-yl)pyridin-2-yl)amino)isoin-dolin-1-one]
CN(C)Cc1nc(Nc2ccc(-c3cnc4cc(F)ccn34)c3c2C(=O)NC3)ccc1N1CCO[C@H](C(C)(C)O)C1 [I-774, (S)-7-((6-((dimethylamino)-methyl)-5-(2-(2-hydroxypropan-2-yl)morpho-lino)pyridin-2-yl)amino)-4-(7-fluoroimidazo [1,2-a]pyridin-3-yl)isoindolin-1-one]
CN(C)Cc1nc(Nc2ccc(-c3cnc4cc(F)ccn34)c3c2C(=O)NC3)ccc1N1CCO[C@@H](C(C)(C)O)C1 [I-775, (R)-7-((6-((dimethylamino)-methyl)-5-(2-(2-hydroxypropan-2-yl)morpho-lino)pyridin-2-yl)amino)-4-(7-fluoroimidazo [1,2-a]pyridin-3-yl)isoindolin-1-one]
CN(C)Cc1nc(Nc2cnc(-c3ccnc4c3ccn4C)c3c2C(=O)NC3)ccc1N1CCC(O)CC1 [I-776, 7-((6-((dimethylamino)-methyl)-5-(4-hydroxypiperidin-1-yl)pyridin-2-yl)amino)-4-(1-methyl-1H-pyrrolo[2,3-b]pyridin-4-yl)-2,3-dihydro-1H-pyrrolo[3,4-c]pyridin-1-one]
CN(C)Cc1nc(Nc2ccc(-c3cnc4cc(F)ccn34)c3c2C(=O)NC3)ccc1N1CCC(O)CC1 [I-777, 7-((6-((dimethylamino)-methyl)-5-(4-hydroxypiperidin-1-yl)pyridin-2-yl)amino)-4-(7-fluoroimidazo [1,2-a]pyridin-3-yl)isoindolin-1-one]
O=C1NCc2c(-c3cnc4cc(F)ccn34)ccc(Nc3ccc([C@H]4CCOC4)c(CN4CC[C@H](O)C4)n3)c21 [I-778, 4-(7-fluoroimidazo[1,2-a]pyridin-3-yl)-7-((6-(((S)-3-hydroxypyrrolidin-1-yl)methyl)-5-((R)-tetrahydrofuran-3-yl)pyridin-2-yl)amino)isoindolin-1-one]
O=C1NCc2c(-c3cnc4cc(F)ccn34)ccc(Nc3ccc([C@@H]4CCOC4)c(CN4CC[C@H](O)C4)n3)c21 [I-779, 4-(7-fluoroimidazo[1,2-a]pyridin-3-yl)-7-((6-(((S)-3-hydroxypyrrolidin-1-yl)methyl)-5-((S)-tetrahydrofuran-3-yl)pyridin-2-yl)amino)isoindolin-1-one]
CO[C@@H]1CCN(Cc2nc(Nc3ccc(-c4cnc5cc(F)ccn45)c4c3C(=O)NC4)ccc2[C@H]2CCOC2)C1 [I-780, 4-(7-fluoroimidazo [1,2-a]pyridin-3-yl)-7((6-(((R)-3-methoxypyrrol-idin-1-yl)methyl)-5-((R)-tetraliydrofiiran-3-yl)pyridin-2-yl)amino)isoin-dolin-1-one]
CO[C@@H]1CCN(Cc2nc(Nc3ccc(-c4cnc5cc(F)ccn45)c4c3C(=O)NC4)ccc2[C@@H]2CCOC2)C1 [I-781, 4-(7-fluoroimidazo [1,2-a]pyridin-3-yl)-7-((6-(((R)-3-methoxypyrrol-idin-1-yl)methyl)-5-((S)-tetrahydrofuran-3-yl)pyridin-2-yl)amino)isoin-dolin-1-one]
COCC1(O)CCN(c2ccc(Nc3ccc(-c4cnc5cc(F)ccn45)c4c3C(=O)NC4)nc2CN(C)C)CC1 [I-782, 7-((6-((dimethylamino)-methyl)-5-(4-hydroxy-4-(methoxymeth-yl)piperidin-1-yl)pyridin-2-yl)amino)-4-(7-fluoroimidazo [1,2-a]pyridin-3-yl)isoindolin-1-one]
O=C1NCc2c(-c3cnc4cc(F)ccn34)ccc(Nc3ccc([C@H]4CCOC4)c(CN4CC[C@@H](O)C4)n3)c21 [I-783, 4-(7-f1uoroimidazo [1,2-a]pyridin-3-yl)-7-((6-(((R)-3-hydroxypyrrol-idin-1-yl)methyl)-5-((R)-tetrahydrofuran-3-yl)pyridin-2-yl)amino)isoin-dolin-1-one]
O=C1NCc2c(-c3cnc4cc(F)ccn34)ccc(Nc3ccc([C@@H]4CCOC4)c(CN4CC[C@@H](O)C4)n3)c21 [I-784, 4-(7-fluoroimidazo [1,2-a]pyridin-3-yl)-7-((6-(((R)-3-hydroxypyrroli-din-1-yl)methyl)-5-((S)-tetrahydrofuran-3-yl)pyridin-2-yl)amino)isoin-dolin-1-one]
